Data published in patent US12173018B2, “Penicillin-binding protein inhibitors” (priority 2018, dated 2024).
≈ marks a conversion by molar mass, not a printed value. Read-outs that look alike come from different tables or passages of the source.

Tests used:
[1] = test system: E. coli DH5α empty pLBII vector control strain; experiment: microbe, parasite or virus in culture; assay type: cell-based, Escherichia coli; settings: Escherichia coli, read-out: Microbiological Activity (MIC in mg/L), E. coli DH5α/pLBII
Description: Briefly, cryo-preserved bacterial cultures of challenge strains are streaked for isolation on appropriate agar medium, in this case Mueller Hinton II agar. Following incubation to allow growth of the colonies, plates are sealed with parafilm and stored refrigerated for up to two weeks. For preparation of assay inoculum and to ensure low variability, at least 5 colonies are picked from the agar plates with an inoculating loop and aseptically transferred to a culture tube containing 3 mL of Mueller-Hinton Broth (supplemented with divalent cations to required levels based on Manufacturers' certification). The broth culture is grown for 3-5 hours at 37° C. with shaking at 200 rpm. Meanwhile, 2-fold serial dilutions of test compounds are conducted in a 96 well plate with a final volume of 75 μL per well at 2-fold the final desired concentration. After the dilution plates are set up the growing cultures are then diluted in a cuvette containing MH II broth and the optical density is measured at 600 nm. The Inoculum is diluted such that 75 μL of this culture in Mueller-Hinton Broth results in a starting bacterial concentration of 5×10^5 CFU/mL when added to the dilution plates. The plates are incubated for 16-20 hours at 37° C. The MIC values are read visually as the lowest concentration well with no bacterial growth.
To determine if test compounds were affected by CTX-M15, the most abundant extended spectrum […] in clinical settings worldwide, the inhibition of the growth of an engineered strain of Escherichia coli harboring CTX-M15 was tested. This strain was constructed by cloning the gene encoding CTX-M15 into the NdeI and BamHI restriction endonuclease sites of plasmid pLBII, placing the gene(s) under the control of the Lac promoter. The constructed expression plasmid for CTX-M15 was used to transform competent E. coli DH5α cells to make the engineered strain, including an empty pLBII vector control strain. The classic cell based broth microdilution MIC assay was employed as described above with the addition of control antibiotics, known to be degraded by β-lactamases (Ceftazidime, piperacillin and piperacillin+tazobactam).

E. coli PBP1b = E. coli PBP1b (Escherichia coli (strain K12), UniProt P02919); experiment: Radioligand competition binding assay with 14C-labeled boronic acid probe, PBP1b
Chain of E. coli PBP1b (P02919 whole entry): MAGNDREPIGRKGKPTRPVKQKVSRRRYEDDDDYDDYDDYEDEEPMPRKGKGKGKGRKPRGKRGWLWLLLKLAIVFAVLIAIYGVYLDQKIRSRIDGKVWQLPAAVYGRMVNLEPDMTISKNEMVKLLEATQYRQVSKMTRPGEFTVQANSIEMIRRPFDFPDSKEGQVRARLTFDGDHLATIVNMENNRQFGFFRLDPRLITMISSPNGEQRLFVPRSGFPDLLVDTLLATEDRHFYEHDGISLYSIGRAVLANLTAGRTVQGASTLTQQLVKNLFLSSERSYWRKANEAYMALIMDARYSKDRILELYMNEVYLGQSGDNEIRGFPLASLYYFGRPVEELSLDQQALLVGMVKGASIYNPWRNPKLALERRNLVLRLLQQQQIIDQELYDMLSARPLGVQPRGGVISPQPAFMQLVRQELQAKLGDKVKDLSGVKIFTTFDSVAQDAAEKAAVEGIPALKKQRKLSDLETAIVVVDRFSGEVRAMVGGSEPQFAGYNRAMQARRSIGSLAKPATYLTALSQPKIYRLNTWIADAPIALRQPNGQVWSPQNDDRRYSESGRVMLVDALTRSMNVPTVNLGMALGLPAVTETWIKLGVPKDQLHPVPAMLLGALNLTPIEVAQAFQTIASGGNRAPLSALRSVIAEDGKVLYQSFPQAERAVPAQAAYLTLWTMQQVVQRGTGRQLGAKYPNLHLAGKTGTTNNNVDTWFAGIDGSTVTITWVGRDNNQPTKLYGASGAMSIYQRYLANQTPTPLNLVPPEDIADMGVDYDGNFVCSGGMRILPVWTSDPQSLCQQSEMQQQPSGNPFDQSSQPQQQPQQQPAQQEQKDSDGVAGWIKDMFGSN

[2] = test system: engineered strain of Escherichia coli harboring CTX-M15; experiment: microbe, parasite or virus in culture; assay type: cell-based; settings: Escherichia coli, read-out: Microbiological Activity (MIC in mg/L), E. coli DH5α/pLBII-CTX-M15, engineered strain producing CTX-M15
E. coli PBP3 = E. coli PBP3 (Escherichia coli (strain K12), UniProt P0AD68); experiment: E. coli PBP3 Bocillin-FL fluorescence polarization competition binding assay
Chain of E. coli PBP3 (P0AD68 whole entry): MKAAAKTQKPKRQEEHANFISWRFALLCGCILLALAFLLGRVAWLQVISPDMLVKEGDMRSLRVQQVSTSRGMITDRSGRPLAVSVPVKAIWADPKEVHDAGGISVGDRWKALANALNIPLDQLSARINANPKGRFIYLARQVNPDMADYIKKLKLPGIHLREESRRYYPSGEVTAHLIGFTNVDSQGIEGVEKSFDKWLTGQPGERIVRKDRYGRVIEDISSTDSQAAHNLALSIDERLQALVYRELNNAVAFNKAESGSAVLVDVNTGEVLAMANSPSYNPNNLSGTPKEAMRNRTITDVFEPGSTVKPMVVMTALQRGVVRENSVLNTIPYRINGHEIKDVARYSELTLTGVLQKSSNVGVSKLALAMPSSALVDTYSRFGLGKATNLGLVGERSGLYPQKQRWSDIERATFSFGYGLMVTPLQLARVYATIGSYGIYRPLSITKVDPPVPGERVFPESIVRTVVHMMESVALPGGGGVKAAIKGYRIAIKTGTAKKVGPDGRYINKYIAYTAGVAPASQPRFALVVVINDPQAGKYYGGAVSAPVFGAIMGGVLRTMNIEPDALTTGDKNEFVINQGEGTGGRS
In short: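 Purified E. coli PBP (1.5 μM final) competed with inhibitor (0-1000 μM) for Bocillin-FL (0.1 μM final) in 50 mM Hepes pH 8.0, 300 mM NaCl, 5% glycerol. Fluorescence polarization (ex 490/em 520 nm) was read continuously for 60 min after Bocillin-FL addition. EC50 was the concentration that reduced Bocillin-FL binding by 50%.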

E. coli ATCC 25922 = experiment: Broth microdilution MIC, E. coli ATCC 25922; assay type: cell-based; settings: Escherichia coli, ATCC25922; E. coli ATCC 25922, broth microdilution; read-out: MIC E. coli 25922
In short: (§1)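 Broth microdilution MICs followed CLSI methods in cation-supplemented Mueller-Hinton broth, with 2-fold serial compound dilutions. Log-phase cultures grown 3–5 h were added to a starting inoculum of 5×10^5 CFU/mL and incubated 16–20 h at 37 °C. The MIC was read visually as the lowest concentration with no growth.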

K. pneumoniae 848844 = experiment: microbe, parasite or virus in culture; assay type: cell-based, Klebsiella pneumoniae; settings: Klebsiella pneumoniae; K. pneumoniae 848844 producing SHV-11 and KPC-2; read-out: MIC K. pneumoniae 848844
In short: as §1

E. coli AG100 = experiment: Broth microdilution MIC, E. coli AG100 (wild-type parent); assay type: cell-based; settings: Escherichia coli; wild-type parent E. coli AG100, broth microdilution; read-out: MIC E. coli AG100
In short: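 Starting inoculum of 5×10^5 CFU/mL, from colonies grown 3-5 h in Mueller-Hinton broth with divalent cations, added to two-fold compound dilution series.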

K. pneumoniae SI-117 = experiment: microbe, parasite or virus in culture; assay type: cell-based; settings: Klebsiella pneumoniae, SI117, read-out: MIC K. pneumoniae SI-117
In short: as §1

K. pneumoniae UMM = experiment: microbe, parasite or virus in culture; assay type: cell-based; settings: Klebsiella pneumoniae; K. pneumoniae UMM producing SHV-5 and KPC-2; read-out: MIC K. pneumoniae UMM
In short: as §1

E. coli D22 = experiment: microbe, parasite or virus in culture; assay type: cell-based; settings: Escherichia coli; hyper-permeable E. coli D22, broth microdilution; read-out: MIC E. coli D22
In short: as §1

E. coli AG100A = experiment: microbe, parasite or virus in culture; assay type: cell-based; settings: Escherichia coli, read-out: MIC E. coli AG100A
In short: as §1

E. coli 901C = experiment: microbe, parasite or virus in culture; assay type: cell-based; settings: Escherichia coli; hyper-permeable E. coli 901C, broth microdilution; read-out: MIC E. coli 901C
In short: as §1

E. coli PBP2 = E. coli PBP2 (Escherichia coli (strain K12), UniProt P0AD65); experiment: E. coli PBP2 Bocillin-FL fluorescence polarization competition binding assay; settings: fluorescence polarization competition binding with Bocillin-FL; read-out: E. coli K12 PBP2 Potency (EC50)
Chain of E. coli PBP2 (P0AD65 whole entry): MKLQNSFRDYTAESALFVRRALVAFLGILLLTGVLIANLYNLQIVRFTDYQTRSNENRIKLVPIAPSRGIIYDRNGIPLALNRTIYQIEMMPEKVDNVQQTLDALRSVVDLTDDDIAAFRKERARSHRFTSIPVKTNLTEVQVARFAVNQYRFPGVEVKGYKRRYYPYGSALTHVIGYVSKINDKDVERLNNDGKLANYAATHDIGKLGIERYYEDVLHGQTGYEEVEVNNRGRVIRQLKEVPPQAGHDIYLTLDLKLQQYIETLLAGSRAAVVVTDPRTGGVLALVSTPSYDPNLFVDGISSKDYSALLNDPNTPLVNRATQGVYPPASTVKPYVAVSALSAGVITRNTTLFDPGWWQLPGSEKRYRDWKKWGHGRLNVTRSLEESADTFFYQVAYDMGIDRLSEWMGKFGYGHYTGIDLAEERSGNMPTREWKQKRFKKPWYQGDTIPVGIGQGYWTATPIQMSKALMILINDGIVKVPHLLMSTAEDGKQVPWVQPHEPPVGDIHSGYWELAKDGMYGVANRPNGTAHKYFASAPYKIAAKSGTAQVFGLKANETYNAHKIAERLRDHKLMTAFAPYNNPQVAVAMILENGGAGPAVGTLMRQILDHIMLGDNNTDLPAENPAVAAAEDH
Source text: To determine the ability of boronic acid-based test PBP inhibitors to bind Penicillin Binding Proteins (PBPs), Bocillin-FL (fluorescently-labeled penicillin V; ThermoFisher Scientific) was used in a fluorescence polarization (FP) competition binding assay to assess inhibitor binding to PBP2, PBP3 or PBP4 from Escherichia coli. PBPs were cloned and purified as described previously (King, D. T, et al., ACS Infectious Diseases 2015, 1, 175-184). To establish assay conditions for competition binding, an enzyme titration/saturation binding experiment was initially performed. Bocillin-FL was prepared at 0.2 μM in a buffer comprised of 50 mM Hepes (pH 8.0), 300 mM NaCl and 5% (v/v) glycerol. Saturation binding was performed by mixing 40 μl of PBP solutions ranging in concentrations from 0-12 μM with 40 μl of the 0.2 μM Bocillin-FL solution, in individual wells of a black 384-well microplate. FP was measured immediately upon mixing (Excitation, 490 nm; Emission, 520 nm; g-factor, 0.96), using a Cytation3 (BioTek) microplate reader and measured continuously for up to 120 minutes. […] For all PBPs the FP signal approached saturation with 1.5 μM PBP (final concentration). […] Assays (80 μl final volume) were performed with PBPs at a final concentration of 1.5 μM, Bocillin-FL at 0.1 μM and beta-lactam concentrations that ranged from 0-1000 μM. […] Bocillin-FL was added and the FP immediately measured for 60 minutes (90 minutes for PBP2). The beta-lactam potency was reported as the concentration of beta-lactam required to reduce binding of Bocillin-FL by […] (EC50). […] Binding assays for boronic acid PBP inhibitors were performed in an identical fashion.

[3] = fluorescence polarization competition binding with Bocillin-FL, read-out: E. coli K12 PBP3 Potency

## CCN1CCN(C(=O)N[C@@H](CC(=O)O)C(=O)N[C@H]2Cc3cccc(C(=O)O)c3OB2O)C(=O)C1=O [Example 24, (R)-3-((S)-3-carboxy-2-(4-ethyl-2,3-dioxopiperazine-1-carboxamido)propanamido)-2-hydroxy-3,4-dihydro-2H-benzo[e][1,2]oxaborinine-8-carboxylic acid]
[1]
  MIC: > 512 mg/L
E. coli PBP1b
  EC50: > 100 µM
[2]
  MIC: > 512 mg/L
E. coli PBP3
  EC50: > 500 µM

## CCN1CCN(C(=O)NC(C(=O)N[C@H]2Cc3cccc(C(=O)O)c3OB2O)c2cc(OC)c(O)c(OC)c2)C(=O)C1=O (stereo partly drawn) [Example 29, (3R)-3-(2-(4-ethyl-2,3-dioxopiperazine-1-carboxamido)-2-(4-hydroxy-3,5-dimethoxyphenyl)acetamido)-2-hydroxy-3,4-dihydro-2H-benzo[e][1,2]oxaborinine-8-carboxylic acid]
[1]
  MIC: 128 to 256 mg/L (≈ 219 to 438 µM)
E. coli PBP1b
  EC50: > 100 µM
[2]
  MIC: 128 to 256 mg/L (≈ 219 to 438 µM)
E. coli PBP3; [3]
  EC50: > 500 µM

## CCN1CCN(C(=O)NC(C(=O)N[C@H]2Cc3cccc(C(=O)O)c3OB2O)c2cc(O)c(O)c(O)c2)C(=O)C1=O (stereo partly drawn) [Example 31, (3R)-3-(2-(4-ethyl-2,3-dioxopiperazine-1-carboxamido)-2-(3,4,5-trihydroxyphenyl)acetamido)-2-hydroxy-3,4-dihydro-2H-benzo[e][1,2]oxaborinine-8-carboxylic acid]
[1]
  MIC: > 512 mg/L
E. coli PBP1b
  EC50: 10 to 100 µM
[2]
  MIC: > 512 mg/L
E. coli PBP3
  EC50: 30 to 500 µM

## CCN1CCN(C(=O)NCC(NC(=O)N2CCN(CC)C(=O)C2=O)C(=O)N[C@H]2Cc3cccc(C(=O)O)c3OB2O)C(=O)C1=O (stereo partly drawn) [Example 33, (3R)-3-(2,3-bis(4-ethyl-2,3-dioxopiperazine-1-carboxamido)propanamido)-2-hydroxy-3,4-dihydro-2H-benzo[e][1,2]oxaborinine-8-carboxylic acid]
[1]
  MIC: > 512 mg/L
E. coli PBP1b
  EC50: < 10 µM
[2]
  MIC: > 512 mg/L
E. coli PBP3
  EC50: > 500 µM

## CCN1CCN(C(=O)NC(CNC(=O)c2ccc(O)c(O)c2)C(=O)N[C@H]2Cc3cccc(C(=O)O)c3OB2O)C(=O)C1=O (stereo partly drawn) [Example 35, (3R)-3-(3-(3,4-dihydroxybenzamido)-2-(4-ethyl-2,3-dioxopiperazine-1-carboxamido)propanamido)-2-hydroxy-3,4-dihydro-2H-benzo[e][1,2]oxaborinine-8-carboxylic acid]
[1]
  MIC: > 512 mg/L
E. coli PBP1b
  EC50: < 10 µM
[2]
  MIC: > 512 mg/L
E. coli PBP3
  EC50: > 500 µM

## CCN1CCN(C(=O)NC(CNC(=O)c2cccc(O)c2O)C(=O)N[C@H]2Cc3cccc(C(=O)O)c3OB2O)C(=O)C1=O (stereo partly drawn) [Example 36, (3R)-3-(3-(2,3-dihydroxybenzamido)-2-(4-ethyl-2,3-dioxopiperazine-1-carboxamido)propanamido)-2-hydroxy-3,4-dihydro-2H-benzo[e][1,2]oxaborinine-8-carboxylic acid]
[1]
  MIC: > 512 mg/L
E. coli PBP1b
  EC50: < 10 µM
[2]
  MIC: > 512 mg/L
E. coli PBP3
  EC50: > 500 µM

## CCN1CCN(C(=O)NC(C(=O)N[C@H]2Cc3cccc(C(=O)O)c3OB2O)c2ccc(O)nc2)C(=O)C1=O (stereo partly drawn) [Example 41, (3R)-3-(2-(4-ethyl-2,3-dioxopiperazine-1-carboxamido)-2-(6-hydroxypyridin-3-yl)acetamido)-2-hydroxy-3,4-dihydro-2H-benzo[e][1,2]oxaborinine-8-carboxylic acid]
[1]
  MIC: 32 to 64 mg/L (≈ 60.9 to 122 µM)
E. coli PBP1b
  EC50: < 10 µM
[2]
  MIC: 32 to 64 mg/L (≈ 60.9 to 122 µM)
E. coli PBP3
  EC50: 30 to 500 µM

## C[C@@H](O)[C@@H](NC(=O)N1CCN(CCF)C(=O)C1=O)C(=O)N[C@H]1Cc2ccc(F)c(C(=O)O)c2OB1O [Example 126, (R)-7-fluoro-3-((2R,3R)-2-(4-(2-fluoroethyl)-2,3-dioxopiperazine-1-carboxamido)-3-hydroxybutanamido)-2-hydroxy-3,4-dihydro-2H-benzo[e][1,2]oxaborinine-8-carboxylic acid]
E. coli ATCC 25922
  MIC: 8 to 16 µg/mL
K. pneumoniae 848844
  MIC: 32 to 64 µg/mL
E. coli AG100
  MIC: 8 to 16 µg/mL
E. coli PBP3; [3]
  EC50: > 500 µM
K. pneumoniae SI-117
  MIC: 8 to 16 µg/mL
K. pneumoniae UMM
  MIC: 8 to 16 µg/mL
E. coli D22
  MIC: 2 to 4 µg/mL
E. coli AG100A
  MIC: 8 to 16 µg/mL
E. coli 901C
  MIC: 2 to 4 µg/mL
E. coli PBP2
  EC50: > 500 µM

## CCN1CCN(C(=O)NC(C(=O)N[C@H]2Cc3cccc(C(=O)O)c3OB2O)c2ccc(N)nc2)C(=O)C1=O (stereo partly drawn) [Example 148, (3R)-3-(2-(6-aminopyridin-3-yl)-2-(4-ethyl-2,3-dioxopiperazine-1-carboxamido)acetamido)-2-hydroxy-3,4-dihydro-2H-benzo[e][1,2]oxaborinine-8-carboxylic acid]
E. coli ATCC 25922
  MIC: 8 to 16 µg/mL
K. pneumoniae 848844
  MIC: 32 to 64 µg/mL
E. coli AG100
  MIC: 32 to 64 µg/mL
E. coli PBP3
  EC50: 30 to 500 µM
K. pneumoniae SI-117
  MIC: 32 to 64 µg/mL
K. pneumoniae UMM
  MIC: 32 to 64 µg/mL
E. coli D22
  MIC: 2 to 4 µg/mL
E. coli AG100A
  MIC: 2 to 4 µg/mL
E. coli 901C
  MIC: 0.5 to 1 µg/mL
E. coli PBP2
  EC50: > 500 µM

## CCN1CCN(C(=O)NC(C(=O)N[C@H]2Cc3cccc(C(=O)O)c3OB2O)c2ccc(NS(C)(=O)=O)cn2)C(=O)C1=O (stereo partly drawn) [Example 154, (3R)-3-(2-(4-ethyl-2,3-dioxopiperazine-1-carboxamido)-2-(5-(methylsulfonamido)pyridin-2-yl)acetamido)-2-hydroxy-3,4-dihydro-2H-benzo[e][1,2]oxaborinine-8-carboxylic acid]
E. coli ATCC 25922
  MIC: > 128 µg/mL
K. pneumoniae 848844
  MIC: > 128 µg/mL
E. coli AG100
  MIC: > 128 µg/mL
E. coli PBP3
  EC50: 30 to 500 µM
K. pneumoniae SI-117
  MIC: > 128 µg/mL
K. pneumoniae UMM
  MIC: > 128 µg/mL
E. coli D22
  MIC: 8 to 16 µg/mL
E. coli AG100A
  MIC: 8 to 16 µg/mL
E. coli 901C
  MIC: 0.5 to 1 µg/mL
E. coli PBP2
  EC50: 30 to 500 µM
